Test results taken from paper PMC5673308, “Two single-point mutations shift the ligand selectivity of a pheromone receptor between two closely related moth species” (eLife, 2017).
Where a chain is given by its changes, count along the chain named.

Legend:
Assay in all cases: two-electrode voltage clamp, Xenopus oocytes
Assay type in all cases: cell-based
Conditions in all cases: holding potential −80 mV, pH 7.5, agonist
HassOr16/HassOrco = target: T1, HassOr16/HassOrco (Helicoverpa assulta, UniProt C6K7C1)
T1 construct: full-length Or16, pCS2+ vector, cRNA co-injected with Orco in Xenopus laevis oocytes; with Odorant receptor coreceptor
T1 sequence (C6K7C1 1-422): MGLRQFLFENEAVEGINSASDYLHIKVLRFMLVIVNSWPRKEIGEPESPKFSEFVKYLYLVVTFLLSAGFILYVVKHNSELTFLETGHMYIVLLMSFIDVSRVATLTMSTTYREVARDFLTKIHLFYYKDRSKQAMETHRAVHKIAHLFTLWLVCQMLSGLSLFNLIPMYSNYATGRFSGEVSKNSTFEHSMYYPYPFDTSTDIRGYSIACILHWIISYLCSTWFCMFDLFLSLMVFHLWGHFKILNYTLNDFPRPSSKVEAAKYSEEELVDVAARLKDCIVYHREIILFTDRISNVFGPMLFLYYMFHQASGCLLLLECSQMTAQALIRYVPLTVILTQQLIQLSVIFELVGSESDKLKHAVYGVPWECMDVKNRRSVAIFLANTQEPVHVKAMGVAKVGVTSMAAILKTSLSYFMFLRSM
T1 sequence (A7UGE1 1-473 partner): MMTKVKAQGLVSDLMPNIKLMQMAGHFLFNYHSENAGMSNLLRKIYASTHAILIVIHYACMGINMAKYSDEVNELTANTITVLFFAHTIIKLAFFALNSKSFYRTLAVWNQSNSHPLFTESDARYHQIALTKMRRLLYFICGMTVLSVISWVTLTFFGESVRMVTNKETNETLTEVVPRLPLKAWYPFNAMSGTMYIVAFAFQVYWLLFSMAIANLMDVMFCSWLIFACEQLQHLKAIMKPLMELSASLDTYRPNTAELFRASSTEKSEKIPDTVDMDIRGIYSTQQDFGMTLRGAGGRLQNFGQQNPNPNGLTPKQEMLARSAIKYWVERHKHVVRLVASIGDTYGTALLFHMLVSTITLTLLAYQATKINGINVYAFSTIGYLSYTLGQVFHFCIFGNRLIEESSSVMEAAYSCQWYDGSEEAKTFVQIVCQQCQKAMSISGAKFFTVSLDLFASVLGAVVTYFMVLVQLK

HarmOr14b/HarmOrco = target: T2, HarmOr14b/HarmOrco (Helicoverpa armigera, UniProt R4JUU3)
T2 construct: gene OR14b; full-length Or14b, pCS2+ vector, cRNA co-injected with Orco in Xenopus laevis oocytes; with Odorant receptor coreceptor
T2 sequence (R4JUU3 1-440): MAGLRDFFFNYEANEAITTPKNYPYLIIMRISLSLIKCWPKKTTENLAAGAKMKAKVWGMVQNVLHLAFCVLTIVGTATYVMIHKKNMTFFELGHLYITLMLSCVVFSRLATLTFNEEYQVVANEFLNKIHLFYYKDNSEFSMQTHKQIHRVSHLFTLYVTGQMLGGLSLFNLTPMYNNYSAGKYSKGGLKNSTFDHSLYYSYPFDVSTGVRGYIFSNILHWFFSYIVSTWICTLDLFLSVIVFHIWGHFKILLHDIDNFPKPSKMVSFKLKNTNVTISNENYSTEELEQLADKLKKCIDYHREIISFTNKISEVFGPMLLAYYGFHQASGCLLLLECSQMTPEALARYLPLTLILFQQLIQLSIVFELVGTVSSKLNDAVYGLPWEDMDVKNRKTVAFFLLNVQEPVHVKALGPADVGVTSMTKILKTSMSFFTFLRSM
T2 sequence (A0A075TD45 1-473 partner): T1 sequence (A7UGE1 1-473 partner) with V55F

HassOr6/HassOrco = target: T3, HassOr6/HassOrco (Helicoverpa assulta, UniProt R4JLZ7)
T3 construct: gene OR6; full-length Or6, pCS2+ vector, cRNA co-injected with Orco in Xenopus laevis oocytes; with Odorant receptor coreceptor
T3 sequence (R4JLZ7 1-425): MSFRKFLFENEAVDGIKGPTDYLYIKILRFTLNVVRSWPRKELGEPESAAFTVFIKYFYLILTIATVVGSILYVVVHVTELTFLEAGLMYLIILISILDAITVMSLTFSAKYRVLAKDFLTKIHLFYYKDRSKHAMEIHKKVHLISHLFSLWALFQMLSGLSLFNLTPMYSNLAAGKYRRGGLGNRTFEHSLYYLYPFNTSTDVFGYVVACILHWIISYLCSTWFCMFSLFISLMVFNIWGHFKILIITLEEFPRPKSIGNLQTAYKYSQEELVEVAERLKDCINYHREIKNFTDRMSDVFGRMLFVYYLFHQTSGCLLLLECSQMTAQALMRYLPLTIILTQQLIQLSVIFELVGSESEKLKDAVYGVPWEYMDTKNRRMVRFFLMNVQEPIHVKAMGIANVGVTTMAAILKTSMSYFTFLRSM
T3 sequence (A7UGE1 1-473 partner): T1 sequence (A7UGE1 1-473 partner)

`CCCC/C=C\CCCCCCCC=O` [Z9-14:Ald, (Z)−9-tetradecenal] was tested, and the “inward current at 10^-4 M” value (HassOr16/HassOrco) was “HassOr16 is specific for Z9-14:Ald” and the “inward current at 10^-4 M” value (HarmOr14b/HarmOrco) was “HarmOr14b is specifically tuned to Z9-14:Ald”.

For `CCCCCC/C=C\CCCCCCCC=O` [Z9-16:Ald, (Z)−9-hexadecenal], the “inward current at 10^-4 M” value (HarmOr14b/HarmOrco) was “HarmOr14b is specifically tuned to Z9-14:Ald, and also weakly responds to Z9-16:Ald”.

For `CCCCCC/C=C\CCCCCCCCO` [Z9-16:OH, (Z)−9-hexadecenol], the “inward current at 10^-4 M” value (HassOr6/HassOrco) was “HassOr6 is mainly tuned to Z9-16:OH”.
